As a reminder, the IC50 is the concentration at which inhibition is half-maximal. Higher therefore signals a need for much substance. The term Vd denotes a proportionality between amount in the body and measured concentration, not a real space. A lower Vd goes with little distribution into tissue. One may read the melting point as the temperature of the solid-liquid transition.

The source of these data is patent publication US9452988B2, “Bendamustine derivatives and methods of using same” (Ignyta, Inc., priority 2012, dated 2016).

Where two headings read alike, the source gives them in different places. Marks after values point to notes of the source that are not given here.

One series deals with MB-231 (HBC). In words: MTS cell assay, MB-231. As to conditions: Homo sapiens, 72 hours. In kind it is cell-based, Human. As to the method: Charles River Labs athymic nude mice bearing MDA-MB-231 breast carcinoma cell line subcutaneous xenografts (5×10^6 cells in matrigel) were sacrificed to make a tumor isolate. Using sterile instruments and working aseptically, the tumors were removed from the euthanized animal. The tumor was placed in a 50 mL sterile conical tube and 5 mL of trypsin was added. The tumor was cut into small pieces and incubated at 37° C. for 30 minutes. After incubation, a cell strainer was placed on a second, sterile, 50 mL conical tube and the contents of the first tube were placed in the cell strainer. The tissue was forced through the filter using the flat end of a syringe plunger. The cell strainer was washed with 5 mLs of media containing FBS. The cells were spun down and the supernatant was discarded. The cells were resuspended in 20 mLs of complete media containing P/S and placed in a 75 cm flask.
(§1) Human carcinoma cells (2,000 cells/well) were incubated with the desired concentration of the test molecule (0-200 μM) for 72 hours. The cells were then incubated with MTS solution (Promega) for 1-2 hours, and the compounds effects on cell proliferation was determined by measuring the absorbance at 490 nm. Cell growth was expressed as a percent of the appropriate control (placebo). […] All data reported was the mean±SE of three independent experiments.
On the technique in general: Formazan colour is commonly taken as a measure of viable cells.

Another series concerns H-460 (NSCLC). In words: MTS cell assay, H-460. The class given is cell-based, Human. To be noted: Homo sapiens, NCI-H460, 72 hours. As to the method:
as §1

A further series concerns MDA-MB-231 xenografts. In words: Nude mouse MDA-MB-231 tumor efficacy study. In kind it is in vivo, athymic nude mice. As to conditions: tail vein day 1 and 2. As to the method:
Charles River Labs athymic nude mice were subcutaneous injected with 5×10^6 human tumor cells in matrigel. The tumor volume was monitored until an average tumor size of ˜150 mm^3 was obtained in the mouse population The mice were then randomized in to one of the nine treatment groups (summarized in table below) with a population of 10 mice per group (n=10). Each of the formulations were dosed at 100 μL fixed volume via tail vein injection on day 1 and day 2 of the study. Mice were weighed and the tumor volume measured every 3-4 days for 3 weeks of the study duration.

Series [1] is described as follows: Tumor and plasma levels, MDA-MB-231 tumor efficacy PK group. To be noted: athymic nude, mouse, in vivo. As to the method:
(§2) A portion of the tumor bearing mice were dosed as a satellite PK group. Each group was dosed as described for the tumor efficacy group, however the PK group was euthanized and tissue samples collected at 1, 3 and 6 hours post dosing on day 2. The tissues collected included blood, lung, liver and tumor. Samples were analyzed for bendamustine HCl and the corresponding ester analogue as described in the LC-MS protocol section.
(§3) Plasma and other tissues were prepared for high performance liquid chromatography (HPLC)/mass spectrometric analysis according to a standard protocol following protein precipitation with acetonitrile containing an internal standard. The samples were then analyzed for both bendamustine HCl and bendamustine esters of the invention and alprenolol (internal standard) via HPLC coupled with tandem mass spectrometry. Tissue samples were homogenized in sodium phosphate buffer and the value obtained from the assay was multiplied by 3 to correct for dilution during processing.

Series [2] relates to H460 tumor cells (large cell lung cancer). In words: Nude mouse H460 tumor efficacy study. As to conditions: tail vein. In kind it is in vivo, nu/nu mouse. As to the method:
2×10^6 cells/100 ul in the mix of medium and Matrigel (1:1 ratio) solution was injected into right back flank of each nu/nu mouse. The implanted mice were monitored and measured with electric calipers. The study started when the tumors reached ˜150 mm^3 in size. The mice were measured and randomized into 9 groups with 10 mice in each group per the below table: […]

The nature of series [3]: Tumor and plasma levels, H460 tumor efficacy PK group. To be noted: nu/nu, mouse, in vivo. As to the method: The formulations were administrated as 100 μL dose volume through tail vein injection within 30 minutes after compounds were formulated. All the mice were weighed and tumors measured twice weekly. At the last day of the study, plasma, tumor, lung, liver, spleen, left kidney, brain and legs were collected and quickly frozen for further analysis two hours post-dosing.
as §2, §3

The nature of series [4]: CD-1 mice plasma pharmacokinetics, bendamustine C14 ester albumin nanoparticle i.v. As to conditions: mouse, iv; for Vd: Mean n = 3; for AUC(0-t): Mean n = 3, read-out: AUC0-6 of C14 Ester in plasma; for AUC(0-inf): Mean n = 3, read-out: AUC0-∞ of C14 Ester in plasma; for clearance: Mean n = 3, read-out: CL of C14 Ester; for half-life: Mean n = 3, read-out: t1/2 of C14 Ester in plasma (converted). The class given is in vivo. As to the method:
Another embodiment of the invention, bendamustine C14 ester was formulated into a nanoparticle intraveneous formulation according to the methods described above and administered to CD-1 mice. The amount of bendamustine (BM1) and bendamustine C14 ester was determined in the mice plasma.

Series [5] has as its system RPMI 8226 (Human Plasmacytoma, Myeloma B Cells). As to the method: Cells (originated from ATCC) were cultured on RPMI medium. Cell suspension was centrifuged and resuspended in 50% Matrigel/HBSS to a final concentration of 7×10^7 cells/ml. The suspension was implanted s.c. in the right flank of the anesthetized mouse at a volume of 100 μl.
Seven ml saline were added to the original vial containing 3.5 mg powder resulting in 0.5 mg/ml. Three ml of this solution were added to 27 ml saline to receive 0.05 mg/ml concentration.
bendamustine preparation: 13.5 mg was dissolved in 3.6 ml of 1:1 mixture of 0.9% saline/5% mannitol just before the treatment. 1.05 ml of this solution was added to 0.95 ml diluent for 2 mg/ml solution.
1.05 ml of this solution was added to 0.95 ml diluent for 2 mg/ml solution.
On day 21, mice were sorted by the optimal average tumor volume (˜150 mm^3) and were allocated into eight groups of 9 mice each.
[formula] The analysis of weight gain and tumor volume progression was made using one-way ANOVA followed by Tukey post-hoc comparisons. Results

For series [6] the following is noted: reported; cited from earlier work.
Where [7] appears, read: 80 mg/kg, Ester level in plasma at 1 hour, HSA nanoparticle.
The mark [8] stands for this setting: 80 mg/kg, Ester level in plasma at 1 hour, Solution.
Setting [9] is: 80 mg/kg, Ester level in tumor at 1 hour, HSA nanoparticle.
The mark [10] stands for this setting: 80 mg/kg, Ester level in tumor at 1 hour, Solution.
[11] abbreviates: HSA nanoparticle, 80 mg/kg Free Base Eq.
[12] abbreviates: Solution, 80 mg/kg Free Base Eq.
Where [13] appears, read: Solution (TREANDA), 37.5 mg/kg Free Base Eq.
Where [14] appears, read: 20 mg/kg iv on days 1 and 2, day 46.
Setting [15] is: 37.5 mg/kg iv on days 1 and 2, day 46.

Turning to `CCCCCCCCCCCCCCOC(=O)CCCc1nc2cc(N(CCCl)CCCl)ccc2n1C` [Bendamustine C14 Ester, 4-{5-[Bis-(chloroethyl)-amino]-1-methyl-1H-benzimidazol-2-yl}butyric acid tetradecyl ester], the IC50 in the series with MB-231 (HBC) was over 200 µM; with H-460 (NSCLC), 130 µM. The “% Morbidity” value stood at 60% in the series on MDA-MB-231 xenografts (HSA nanoparticle, 80 mg/kg); 40% in the series on MDA-MB-231 xenografts (Solution, 80 mg/kg); 10% in series [2] (setting [11]); 100% in series [2] (setting [12]). The “% Mortality” value was determined as 0% in the series on MDA-MB-231 xenografts (HSA nanoparticle, 80 mg/kg); 0% in the series with MDA-MB-231 xenografts (Solution, 80 mg/kg); 0% in series [2] (setting [11]); 40% in [2] (setting [12]). The “% Tumor Inh.” value in the series on MDA-MB-231 xenografts (HSA nanoparticle, 80 mg/kg) turned out to be 86.5%; with MDA-MB-231 xenografts (Solution, 80 mg/kg) it was 90%; in series [2] (setting [11]) it was 40%; in [2] (setting [12]) it was 81%. In addition, the concentration at 1 h in series [1] (setting [7]) came out at 5730 ng/mL; in series [1] (setting [8]), 14 ng/mL; in series [1] (setting [9]), 10400 ng/mL; in series [1] (setting [10]), 396 ng/mL; in [3] (setting [7]) it was 3650 ng/mL; in series [3] (setting [8]), 32200 ng/mL. Moreover, the concentration at 1 h in series [3] (setting [9]) turned out to be 4570 ng/mL; in series [3] (setting [10]) it was 8570 ng/mL. Also, the Vd in [4] (30 mg/kg, 30 mg-eq/kg) is 3.2 L/kg; in series [4] (55 mg/kg, 55 mg-eq/kg), 2.5 L/kg; in series [4] (80 mg/kg, 80 mg-eq/kg) it was 5.2 L/kg. The AUC(0-t) in series [4] (30 mg/kg, 30 mg-eq/kg) came to 31700 ng·h/mL; in [4] (55 mg/kg, 55 mg-eq/kg), 48900 ng·h/mL; in series [4] (80 mg/kg, 80 mg-eq/kg) it was 46300 ng·h/mL. Moreover, the AUC(0-inf) in series [4] (30 mg/kg, 30 mg-eq/kg) is 31700 ng·h/mL; in [4] (55 mg/kg, 55 mg-eq/kg) it was 49000 ng·h/mL; in series [4] (80 mg/kg, 80 mg-eq/kg), 46500 ng·h/mL. The clearance in [4] (30 mg/kg, 30 mg-eq/kg) worked out at 24 mL/min/kg; in series [4] (55 mg/kg, 55 mg-eq/kg), 29 mL/min/kg; in series [4] (80 mg/kg, 80 mg-eq/kg), 56 mL/min/kg. In addition, the half-life in [4] (30 mg/kg, 30 mg-eq/kg) was 1.52 h; in [4] (55 mg/kg, 55 mg-eq/kg), 0.98 h; in series [4] (80 mg/kg, 80 mg-eq/kg) it was 1.09 h.

Regarding `Cn1c(CCCC(=O)O)nc2cc(N(CCCl)CCCl)ccc21` [Bendamustine, 4-[5-[bis(2-chloroethyl)amino]-1-methylbenzimidazol-2-yl]butanoic acid], the half-maximal inhibitory concentration (IC50) in the series with MB-231 (HBC) is 13 to 16 µM; with H-460 (NSCLC) it was 4 to 26 µM. For the same compound, the “% Morbidity” value in the series on MDA-MB-231 xenografts (Solution, 37.5 mg/kg) was 10%; in series [2] (setting [13]), 0/0%. Besides, the “% Mortality” value in the series on MDA-MB-231 xenografts (Solution, 37.5 mg/kg) is recorded as 0%; in series [2] (setting [13]), 0/0%. Besides, the “% Tumor Inh.” value was 77% with MDA-MB-231 xenografts (Solution, 37.5 mg/kg) and 41.5% in series [2] (setting [13]). For the same compound, the concentration at 1 h in series [1] (37.5 mg/kg, BM1 level in plasma at 1 hour, Solution) is 906 ng/mL; in [1] (37.5 mg/kg, BM1 level in tumor at 1 hour, Solution), 558 ng/mL; in series [3] (37.5 mg/kg, BM1 level in plasma at 1 hour, Solution (TREANDA)), 1550 ng/mL; in [3] (37.5 mg/kg, BM1 level in tumor at 1 hour, Solution (TREANDA)), 1470 ng/mL. Moreover, the “Max BW (mean) reduction” value in [5] (20 mg/kg iv on days 1 and 2) is given as −2.7%; in series [5] (37.5 mg/kg iv on days 1 and 2), −6.2%. Moreover, the “No. of TRD” value in [5] (20 mg/kg iv on days 1 and 2) is listed as 0; in [5] (37.5 mg/kg iv on days 1 and 2) it was 0. For the same compound, the “No. og nTRD” value in series [5] (20 mg/kg iv on days 1 and 2) is reported as 0; in series [5] (37.5 mg/kg iv on days 1 and 2), 0. In addition, the “% TGI” value in series [5] (setting [14]) is given as 66*** %; in [5] (setting [15]), 81%. Besides, the “No. of CR” value in [5] (setting [14]) and in [5] (setting [15]) was 0 each time. Also, the “No. of PR” value in series [5] (setting [14]) and in series [5] (setting [15]) was 0 throughout. Further, the “mean tumor volume, (mean ± se)” value in [5] (setting [14]) stood at 205 ± 44; in series [5] (setting [15]), 113 ± 23. For the same compound, in [6], the half-life in vivo was 6 to 10 min.

`COC(=O)CCCc1nc2cc(N(CCCl)CCCl)ccc2n1C` [—CH3, 4-{5-[Bis-(2-chloro-ethyl)-amino]-1-methyl-1H-benzoimidazol-2-yl}-butyric acid methyl ester]: the melting point is 60 to 63 °C (dec.). This compound also showed an IC50 with MB-231 (HBC) of 66 µM. The same compound showed an IC50 in the series with H-460 (NSCLC) of 1.2 µM.
